Data set [1] has as its system healthy subjects. Nature of the data set: Analyzing test of blood components (myoglobin, lactic acid, CPK) after exercise stress. The settings on record: value just after exercise stress = 100%. The class given is in vivo, human. As to the method:
To 20 healthy subjects (14 males and 6 females), was given an exercise stress of 15 km running within a limited time of 2 hours. The 20 subjects who run the whole distance within the limited time were divided into 2 groups by the arrival order, that is, one group consisting of 10 subjects of odd-numbered order of arrival (8 male subjects and 2 female subjects) and the other group consisting of 10 subjects of even-numbered order of arrival (6 male subjects and 4 female subjects). To the group of odd numbers was administered tranilast (hereinafter referred to as Medicine administration group) and to the group of even numbers was not administered (hereinafter referred to as Control group). […]
In each group, bloods were collected at a time of just before, just after, 3 days and 7 days after the exercise stress. And, blood components considered relevant to muscular fatigue and muscular damage (myoglobin, lactic acid and CPK) were analyzed, and relative degrees of changes of blood concentrations which are converted into relative values to the concentrations just after the exercise stress set as 100% were calculated.

The conditions of data set [2]: repeated administration of 300 mg a day; cited from earlier work.

Consider `COc1ccc(/C=C/C(=O)Nc2ccccc2C(=O)O)cc1OC` [tranilast, N-(3,4-dimethoxycinnnamoyl)anthranilic acid], for which the “relative degree of change of blood concentration of CPK” value in data set [1] (3 days after exercise stress, control 160% or more) was “about 110%”; in data set [1] (7 days after exercise stress, control about 90%) it was “about 60%”. Besides, the “time at which tranilast concentration in blood reached the maximum” value in data set [2] is 2 days.

These data come from patent US20060111443A1, “Preventive therapeutic composition for muscular fatigue, pulled muscle and disease attributed thereto” (priority 2002, published 2006).
